This assay has as its system P. falciparum 3D7 growth, pLDH absorbance. In words: P. falciparum 3D7 growth inhibition, dose response, strain 3D7 (AID 2305).

Where “and” joins values, the source holds several entries; their conditions need not be identical. Equal values may be shown once.

Broadly, the IC50 is the concentration needed to halve the response being measured. Compound `CC(C)(CN)c1nc(-c2ccc(Br)c(O)c2)c(-c2ccncc2)[nH]1` displayed an IC50 of 0.97 µM.

As for `CS(=O)(=O)c1ccc(-c2cncc(Cl)n2)cc1`, the 50% inhibitory concentration (IC50) was determined as 0.77 µM.

As to `CC(=O)c1cccc(NC(=O)C2c3ccccc3C(=O)N(CC(C)C)C2c2cccs2)c1` (configuration not stated), the IC50 amounted to 0.59 µM.

For the compound `COc1ccc(NC(=O)c2ccc(-c3nc(-c4ccc(Cl)cc4)cs3)cc2)cc1N1CCN(C)CC1`, the half-maximal inhibitory concentration (IC50) stood at 0.92 µM.

For the compound `CCC[C@@H]([C@@H](CC1CCCCC1)C(=O)N[C@H](C(=O)Nc1nccs1)C(C)(C)SCCOCCOCC)N(O)C=O`, the IC50 was 0.08 µM.

`Cn1nc(-c2ccc(S(=O)(=O)N3CCC(CCN4CCC(c5c[nH]c6ccccc56)CC4)CC3)s2)cc1C(F)(F)F` yielded an IC50 of 0.81 µM.

Turning to `CCN(CC)C(C)(C)CN(Cc1ccc(-c2ccc(C(F)(F)F)cc2)cc1)C(=O)Cn1c(CCc2cccc(F)c2F)nc(=O)c2ccccc21`, the IC50 came out at 0.96 µM.

With `CN(C)CCC1CCN(CCS(=O)(=O)c2cccc(Nc3ccc(-c4ccsc4)cn3)c2)CC1`, the IC50 came out at 0.94 µM.

Consider `Clc1ccc2c(NN=Cc3ccccc3)ccnc2c1`, for which the half-maximal inhibitory concentration (IC50) was determined as 0.76 µM. This IC50 and that of the compound before are within 1.5-fold of each other.

`CC(C)CNCc1cccc(-c2ccc(CN(CCCN3CCN(C)CC3)C(=O)/C=C/c3ccccc3)cc2)c1`: the IC50 turned out to be 0.86 µM.

Consider `CC(=O)Nc1cc(C(=O)Nc2cccc(-c3cccc(-c4nc5c(C)cccc5[nH]4)c3)c2)ccc1C`, for which the 50% inhibitory concentration (IC50) was 0.33 µM.

Take `Cc1ccc(N2C(=O)C3C(C2=O)[C@]2(c4ccccc4)C(=O)[C@@]3(c3ccccc3)C(c3ccccc3)=C2c2ccccc2)cc1` (some centres not stated): the IC50 stood at 0.87 µM. This IC50 is about 2.6-fold higher than that of the compound before.

Consider `CC(C)(C)c1ccc(S(=O)(=O)Nc2ccccc2Cn2nc(N3CCNCC3)ccc2=O)cc1`, for which the IC50 was 0.85 µM.

As to `O=C(Nc1ccc(CN2CCOCC2)cc1)c1ccc(-c2ccc(Br)cc2)o1`, the 50% inhibitory concentration (IC50) was 1.12 µM.

In the case of `COc1ccc2c(c1)S(=O)(=O)N=C(N1CCCC1c1ccc(Cl)c(Cl)c1)N2C` (configuration not stated), the IC50 was determined as 1.28 µM.

Consider `Nc1c2c(nc3ccc(Oc4ccc(Cl)cc4)cc13)CCCC2`, for which the IC50 was 0.97 µM.

Compound `COc1ccc2nccc([C@@H](O)CN3CCC(NC(=O)c4ccc(-c5ccccc5)s4)CC3)c2c1` returned an IC50 of 0.31 µM.

`COc1ccc(NC(=O)Nc2ccc(Nc3nc(C)cc(N4CCCC4)n3)cc2)cc1` returned a concentration for half-maximal inhibition (IC50) of 0.14 µM.

Consider `CCc1ccc(S(=O)(=O)Nc2ccc(CCN(C)C3CCN(C)CC3)cc2)cc1`, for which the half-inhibitory concentration (IC50) worked out at 1.06 µM.

In turn, `O=C(Nc1cccc(-c2csc(-c3nc4ccccc4[nH]3)c2)c1)c1cc(=O)c2ccccc2[nH]1` returned a half-maximal inhibitory concentration (IC50) of 0.23 µM.

In the case of `CCN1CCN(CCCNc2c3ccc(Cl)cc3nc3ccc(OC)cc23)CC1`, the half-inhibitory concentration (IC50) was determined as 0.15 µM.

With `CC1CN=C(c2ccc(NC(=O)Nc3ccc(C4=NCC(C)N4)cc3)cc2)N1` (configuration not stated), the IC50 was determined as 0.38 µM.

`CCCCCCN1CCCN(Cc2ccc(C(=O)Nc3ccc(Cl)cc3)cc2)CC1`: the IC50 amounted to 1.21 µM.

In the case of `Cc1ncccc1C(=O)Nc1cccc(-c2cccc(-c3nc4ccc(C(F)(F)F)cc4[nH]3)c2)c1`, the IC50 is 0.6 µM.

Compound `CC(CO)(CO)NCc1cc2ccc3ccsc3c2c2ccccc12` returned an IC50 of 0.23 µM.

As for `O=C(Nc1ccc(F)cc1)c1cnc(N2CCN(c3ccncc3)CC2)c(Cl)c1`, the half-inhibitory concentration (IC50) was found to be 0.74 µM.

Turning to `Oc1cccc(Nc2ccnc3cc(-c4ccncc4)ccc23)c1`, the IC50 was found to be 1.05 µM.

Compound `CC[C@H]1CN2CC[C@@H]1C[C@H]2[C@H](O)c1cc(-c2cccnc2)nc2ccc(OC)cc12` showed an IC50 of 0.04 µM. This IC50 is about 26-fold lower than that of the compound before.

For the compound `COc1ccc(C2CC(c3ccccc3)=NN2C(=O)c2ccc(Br)o2)cc1` (configuration not stated), the IC50 is 0.32 µM.

Turning to `CN1CCC(C(=O)N(Cc2ccc(-c3ccc(CNCCc4ccccc4)cn3)cc2)Cc2cccc(F)c2)CC1`, the IC50 stood at 0.94 µM.

The compound `O=C(/C=C/c1ccc(C(F)(F)F)cc1)NCCCCCN1CCC(c2c[nH]c3ccccc23)CC1` returned an IC50 of 0.68 µM.

In the case of `N#Cc1cccc(NC(=O)c2ccc(S(=O)(=O)NCC3CCCN3CC3CCCCC3)cc2)c1` (configuration not stated), the IC50 is 1.05 µM.

For the compound `O=C(Nc1cccc(C(F)(F)F)c1)c1cccc(S(=O)(=O)NCC2CCCN(Cc3ccccc3)C2)c1` (configuration not stated), the IC50 was found to be 1.1 µM.

`Cc1ccc(C)c(C2CCN(CCCCNC(=O)c3ccc(NC(=O)c4ccc(Cl)cc4)cc3)CC2)c1`: the IC50 is 0.85 µM.

Compound `COc1ccc2nccc([C@@H](O)CN3CCC(NCc4ccc5c(c4)nnn5C(C)C)CC3)c2c1` gave an IC50 of 0.64 µM.

As to `CC(=O)Nc1ccc(CN2CCC(CNC(=O)c3cc(-c4cccc(C(F)(F)F)c4)cs3)C2)cc1` (configuration not stated), the IC50 was determined as 1.1 µM.

As to `CCCCCC(C)N=C(Nc1ccc(C#N)cc1O)Nc1cccc(Cl)c1Cl` (configuration not stated), the IC50 was 0.8 µM.

For `N#Cc1ccc(CN2CCCN(Cc3cccc(NC(=O)c4ccc(Cl)c(Cl)c4)c3)CC2)cc1`, the IC50 stood at 0.85 µM.

In turn, `CC(c1cccc(Nc2nccc(-c3c(-c4cccc(NC(=O)c5c(F)cccc5F)c4)nn4ncccc34)n2)c1)S(C)(=O)=O` (configuration not stated) yielded an IC50 of 0.05 µM.

Regarding `Cc1ccccc1CNc1nccc(NCCC(=O)Nc2ccccc2)n1`, the half-inhibitory concentration (IC50) turned out to be 0.89 µM. Compared with the last compound, the IC50 is about 18-fold higher.

The compound `COc1ccc2nccc(N3CCN(CCNCc4ccc5c(n4)NC(=O)CO5)CC3)c2c1` registered a concentration for half-maximal inhibition (IC50) of 1.16 µM. The IC50 values of the last two compounds are within 1.5-fold of each other.

`CCCCOc1ccc(N2C(N)=NC(N)=NC2(C)C)cc1` gave an IC50 of 0.21 µM.

For `COc1ccc(NC(=O)/C=C/c2ccc(-c3ccc(-c4noc(C)n4)cc3)cc2)cc1OCCN(C)C`, the IC50 came to 1.37 µM.

Turning to `Clc1ccc(-c2cnc3ccc(NCCc4cccnc4)nn23)cc1`, the IC50 stood at 0.86 µM.

Compound `CCOc1cc2ccccc2cc1CNCCCCCCNCc1cc2ccccc2cc1OCC` gave an IC50 of 0.98 µM.

With `CCN1CC=C(c2c[nH]c3ccccc23)CC1`, the half-inhibitory concentration (IC50) stood at 1.03 µM.

`Cc1ccc(F)c(CN2CCC(N3CC(c4ccccc4)(c4ccccc4)OC3=O)CC2)c1Cl` registered an IC50 of 0.59 µM.

In turn, `CC(CN(C)C)C(=O)Nc1ccc(-c2ccc(-c3nc4ccc(F)cc4[nH]3)cc2)cc1` (configuration not stated) showed an IC50 of 0.77 µM.

As to `CC(CCCCC(=O)Nc1ccc(CC(C)NCCc2cccc(Cl)c2)cc1)NCCc1cccc(Cl)c1` (configuration not stated), the half-maximal inhibitory concentration (IC50) is 1.01 µM. This IC50 and that of the compound before are within 1.5-fold of each other.

`COc1ccc2nccc([C@@H](O)CN3CCC(NC(=O)c4cc5c(Cl)cc(Cl)cc5[nH]4)CC3)c2c1`: the IC50 worked out at 0.23 µM.

On to `O=C(/C=C/c1ccc(Cl)c(Cl)c1)NC1CCC(CN2CCC(c3c[nH]c4ccc(O)cc34)CC2)CC1` (configuration not stated), for which the concentration for half-maximal inhibition (IC50) was 0.14 µM and 0.42 µM.

In the case of `N=C(N)c1ccc2nc(SCc3ccccc3)[nH]c2c1`, the half-inhibitory concentration (IC50) was 0.69 µM.

In turn, `COc1ccc2nccc([C@@H](O)CN3CCC(NC(=O)c4ccc5cc[nH]c5c4)CC3)c2c1` came in with a half-inhibitory concentration (IC50) of 0.97 µM. This IC50 and that of the compound before are within 1.5-fold of each other.

`Cc1[nH]c(C)c(-c2ccc(CCc3ccc(F)cc3F)cc2)c(=O)c1Cl` showed an IC50 of 0.02 µM.

`CCCOc1ccc(NC(=O)c2cccs2)cc1Cl` came in with an IC50 of 0.86 µM.

With `FC(F)(F)COc1c(CCNCCCCNCCc2ccc3ccccc3c2OCC(F)(F)F)ccc2ccccc12`, the 50% inhibitory concentration (IC50) was 0.35 µM.

The compound `CCC(C)NS(=O)(=O)c1ccc2nc(Nc3ccc(C)c(Cl)c3)n(C(C)C(C)C)c2c1` (configuration not stated) came in with an IC50 of 0.38 µM.

Compound `CCCCC1(c2ccc(F)cc2)NC(=O)N(CC(=O)c2cc(C)n(Cc3ccco3)c2C)C1=O` (configuration not stated) came in with an IC50 of 0.98 µM.

On to `Cc1sc2nc(CN3CCCC3)nc(-n3c(NCCO)nc4ccccc43)c2c1C`, for which the half-inhibitory concentration (IC50) was determined as 1.24 µM.

As for `COc1ccc2nccc([C@@H](O)CN3CCC(NC(=O)c4cc5c(F)cc(F)cc5[nH]4)CC3)c2c1`, the IC50 stood at 0.24 µM. This IC50 lies about 5.2-fold lower than the previous one.

The compound `COc1ccc(CNCc2ccc(-c3cccc(-c4nc5c(C)cccc5[nH]4)c3)cc2)cc1` had an IC50 of 0.13 µM.

Take `CCOC(=O)c1cc(=O)c2ccc(OCC#N)cc2o1`: the IC50 was 1.03 µM. Against the preceding compound, the IC50 is about 7.9-fold higher.

For the origin of these results see PubChem BioAssay AID2305 (GlaxoSmithKline (GSK), 2010).
